From patent US20060211710A1, “Substituted aryl 1,4-pyrazine derivatives” (Pfizer Inc, priority 2005, published 2006)

Biological target: T1, CRF1 receptor (Rattus norvegicus, UniProt P35353)
T1 construct: from tissue; host or cells: rat frontal cortex membranes
T1 sequence (P35353 24-415): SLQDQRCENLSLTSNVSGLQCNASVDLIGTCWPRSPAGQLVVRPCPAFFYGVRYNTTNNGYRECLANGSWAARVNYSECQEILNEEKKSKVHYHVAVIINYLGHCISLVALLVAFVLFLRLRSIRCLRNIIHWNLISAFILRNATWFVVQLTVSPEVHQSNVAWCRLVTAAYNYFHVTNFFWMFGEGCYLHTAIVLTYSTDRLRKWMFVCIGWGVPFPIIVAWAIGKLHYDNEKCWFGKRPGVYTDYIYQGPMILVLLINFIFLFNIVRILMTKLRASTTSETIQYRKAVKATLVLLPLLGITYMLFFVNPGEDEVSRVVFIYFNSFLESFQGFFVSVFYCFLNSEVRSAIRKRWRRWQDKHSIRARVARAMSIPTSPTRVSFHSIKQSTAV
Test: CRF1 Receptor Binding Assay (rat brain membranes, 125I-ovine-CRF)
Conditions: read-out: Ki, the binding constant to the CRF1 receptor
Procedure: The following is a description of the isolation of rat brain membranes for use in the standard binding assay as well as a description of the binding assay itself. It is based on a modified protocol described by De Souza (De Souza, 1987).
To prepare brain membranes for binding assays, rat frontal cortex is homogenized in 10 mL of ice cold tissue buffer (50 mM HEPES buffer pH 7.0, containing 10 mM MgCl2, 2 mM EGTA, 1 μg/ml aprotinin, 1 μg/ml leupeptin and 1 μg/ml pepstatin). The homogenate is centrifuged at 48,000×g for 10 min. and the resulting pellet rehomogenized in 10 mL of tissue buffer. Following an additional centrifugation at 48,000×g for 10 min., the pellet is resuspended to a protein concentration of 300 μg/mL.
Binding assays are performed in 96 well plates at a final volume of 300 μL. The assays are initiated by the addition of 150 μL membrane suspension to 150 μL of assay buffer containing ^125I-ovine-CRF (final concentration 150 pM) and various concentrations of inhibitors. […] Filters are assessed for radioactivity in a Packard TopCount. Nonspecific binding is determined in the presence of excess (10 μM) α-helical CRF. […]
IC50 values are calculated using standard methods known in the art, such as with the non-linear curve fitting program RS/1 (BBN Software Products Corp., Cambridge, Mass.).

| Ki | Compound |
| --- | --- |
| 0.019 µM | CCc1nc(-c2ccc(N(C)C)nc2C)c(CC)nc1N[C@@H]1c2ccccc2C[C@@H]1OC(C)=O [Example 1, (1R,2S)Acetic acid 1-[5-(6-dimethylamino-2-methyl-pyridin-3-yl)-3,6-diethyl-pyrazin-2-ylamino]-indan-2-yl ester] |
| 0.013 µM | CCO[C@H]1Cc2ccccc2[C@H]1Nc1nc(CC)c(-c2ccc(N(C)C)nc2C)nc1CC [Example 3, (1R,2S)[5-(6-Dimethylamino-2-methyl-pyridin-3-yl)-3,6-diethyl-pyrazin-2-yl]-(2-ethoxy-indan-1-yl)-amine] |
